Data as given in patent US20220127607A1, “METHODS AND MATERIALS FOR ACTIVATING AN INTERNAL RIBOSOME ENTRY SITE IN EXON 5 OF THE DMD GENE” (RESEARCH INSTITUTE AT NATIONWIDE CHILDREN'S HOSPITAL, priority 2014, published 2022).
Entries after “also recorded” stand apart in the source; their conditions may differ.

Key:
Dup2 mice [1] = assay: Evans blue dye (EBD) uptake / membrane protection assay; format: in vivo, mouse; conditions: Dup2 TA, 4 weeks post-injection; agent alone (U7-ACCA 5e11vg IM; PDN 1 mg/kg/day ip); untreated Dup2 14.7±6.6
Description: FIGS. 4A-4F. Intramuscular delivery of U7-ACCA results in significant N-truncated dystrophin expression in Dup2 mice, restoring localization of dystrophin-associated proteins. […] In wild type BI6 animals (FIG. 4B), the wild type transcript was 14.2% and Del2 transcript was 85.8%. (FIG. 4C) RNA-Seq read depth using a tibialis anterior muscle total RNA library from Dup2 U7-ACCA treated (upper) and Dup2 untreated (lower) mice, mapped to the 5′ region of the mouse Dmd gene (mm9, chrX:80,150,000-81,050,000). […] The protein induced in BI6 males injected with U7-ACCA is of the same size as that expressed in the Dup2 treated animals, confirming the size difference between this protein and the full-length isoform. (C-terminal antibody: PA1-21011,Thermo, Inc). […]
FIGS. 6A-6E. […] EBD-positive fibers were quantified as a percent out of a total of 5,000 fibers counted per animal.
We examined whether expression of the IRES-driven isoform improved muscle integrity and physiology in the Dup2 mouse. Similar to the case in mdx mice, dystrophic changes in Dup2 mice are quantifiable at 4 weeks of age as widespread muscle regeneration characterized by centralized nuclei (Vulin et al., manuscript in press). […] Quantification of the number of EBD positive fiber confirms that expression of the IRES driven isoform results in protection of muscle fibers in these mice (FIG. 6B). […]

utrophin = assay: Utrophin immunoblot in mouse muscle; format: in vivo; conditions: Dup2 mice, PDN 1 mg/kg/day treated versus untreated, with or without U7-ACCA
Protocol: (§1) FIGS. 5A-5F. […] (FIG. 5A) Dual luciferase assay performed on lysates from C2C12 cells transfected with the pRDEF vector carrying the exon 5-6 IRES construct. […] Error bars representate s.d. […] The image intensity for the wild-type lane was lowered to allow identification of bands. MHC=myosin heavy chain (loading control). […] Immunoblot was performed on each muscle in duplicate, and the signals for both dystrophin and α-actinin from the resulting 5 lanes were quantified using ImageJ. […] The signals for both utrophin and α-actinin from the resulting 5 lanes were quantified using ImageJ.
(§2) Furthermore, treatment with the glucocorticoids prednisone and deflazacort are standard treatment for DMD. […] Because utrophin translation may be regulated by corticosteroids and overexpression can compensate for absent dystrophin, we assessed utrophin levels in the same injected muscles (FIG. 5E).

Dup2 mice [2] = assay: Grip strength; format: in vivo, mouse; conditions: 4 weeks, agent alone, untreated Dup2 2.22±0.26, BI6 3.36±0.37
Protocol: (§3) Dup2 tibialis anterior muscles were treated by intramuscular injection of 5e11vg U7-ACCA alone or with methylprednisolone (PDN: 1 mg/kg/day intraperitoneal) and analyzed at 4 weeks post-injection. […] EBD-positive fibers were quantified as a percent out of a total of 5,000 fibers counted per animal.
(FIG. 17C) Immunostaining of dystrophin on the same samples confirms dystrophin expression and its proper localization at the sarcolemma.

dystrophin IRES [3] = conditions: C2C12 cells, pRDEF exon 5-6 IRES construct, increasing concentrations
Protocol: as §1, §2

Dup2 mice [4] = assay: Central nucleation of myofibers in Dup2 mouse muscle; format: in vivo; conditions: Dup2 TA, 4 weeks post-injection; agent alone (U7-ACCA 5e11vg IM; PDN 1 mg/kg/day ip); untreated Dup2 73.0±1.6
Protocol: Expression of the IRES-driven isoform improves muscle membrane integrity and protects Dup2 muscle from contraction-induced damage. Dup2 tibialis anterior muscles were treated by intramuscular injection of 5e11vg U7-ACCA alone or with methylprednisolone (PDN: 1 mg/kg/day intraperitoneal) and analyzed at 4 weeks post-injection. […] EBD-positive fibers were quantified as a percent out of a total of 5,000 fibers counted per animal.

dystrophin = assay: Dystrophin immunoblot in FibroMyoD cells; format: cell-based, human; conditions: Dup2 FibroMyoD cells treated with U7-ACCA and 6.4 μM PDN
Dup2 mice [5] = assay: Loss of force following repetitive eccentric contractions; format: in vivo, mouse; conditions: Dup2 TA, 4 weeks; agent alone
dystrophin IRES [6] = assay: Dual luciferase IRES assay in 293K cells; format: cell-based
Description: FIGS. 12A-12B. […] Error bars represent s.d. […] N=4 animals per group. Error bars represent s.d.
as §2

Dup2 mice [7] = assay: Muscle force following tetanic contraction; format: in vivo, mouse; conditions: Dup2 TA, 4 weeks; agent alone; untreated Dup2 170.9±14.3, BI6 274.0±12.1
Protocol: as §3

DMD exon 2 = assay: RT-PCR of exon 2 skipping in patient-derived FibroMyoD cells; format: cell-based, human
Description: FIGS. 3A-3D. Out-of-frame exon-skipping stimulates IRES activity in patient-derived cell lines. (FIG. 3A) Schematic representation of the human DMD exon 1-10 reading frame (blue) and 5′UTR (red). Blue numbers above each exon indicate cDNA positions; red numbers at the base of each exon indicate the amino acid position. The canonical actin binding domain 1 is represented, along with the predicted (via ScanProsite) CH and ABS domains. (FIG. 3B) Schematic representation of exon 2 (SEQ ID NO: 30). The selected targeted sequences are indicated below, affecting either splice acceptor (S.A.), splice donor (S.D.), or exon splice enhancer (E.S.E.) sequences (as predicted using Human Splicing Finder or ESE finder 3.0). (FIG. 3C) Two copies each of U7-C and U7-AL were cloned into the same AAV plasmid, as they were the most efficient in skipping exon 2 (see FIGS. 10A-10B). The resulting construct is referred to as U7-ACCA. RT-PCR results after infection of U7-ACCA vector (1E11 vg) or H2A antisense oligonucleotide (AON H2A) into either wt or duplicated exon 2 FibroMyoD (FM) cells. […]
In considering skipping of exons prior to the exon 5 IRES, only the removal of exon 2 will disrupt the reading frame and result in a premature stop codon (FIG. 3A). […]

Row | Molecule | Evans blue dye (EBD)-positive fibers (Dup2 mice [1]) | utrophin levels (utrophin) | Normalized maximum hindlimb grip strength (Dup2 mice [2]) | IRES activity, concentration dependence (dystrophin IRES [3]) | Central nucleation (% of myofibers) (Dup2 mice [4]) | dystrophin expression (dystrophin) | Protection from loss of force following repetitive eccentric contractions (Dup2 mice [5]) | glucocorticoid activation of IRES (dystrophin IRES [6]) | Normalized specific force following tetanic contraction (Dup2 mice [7]) | exon-skipping (RT-PCR, qualitative) (DMD exon 2; control and duplicated exon 2 patient-derived FibroMyoD, 3 days post AAV infection or AON transfection) | transcript lacking exon 2 (DMD exon 2; patient cell lines carrying mutation within exon 1 to 4, AAV 1×10E11 vector genomes)
1 | C[C@H]1C[C@@H]2[C@H]([C@@H](O)C[C@@]3(C)[C@H]2CC[C@]3(O)C(=O)CO)[C@@]2(C)C=CC(=O)C=C12 [PDN, 6-methyl-prednisolone] | No significant difference | no statistically significant difference; also recorded: does not increase expression of utrophin | No significant difference | increases IRES activity in a dose-dependent fashion | No significant difference | An increase in dystrophin expression | No significant difference | not seen | No significant difference | – | –
2 | AON H2A: known antisense oligonucleotide CCAUUUUGUGAAUGUUUUCUUUUGAACAUC (SEQ ID NO: 13), positive control of exon 2 skipping (chemistry not given here) | – | – | – | – | – | – | – | – | – | lower efficiency than U7-mediated skipping | approximately 90%
